# Data from publication PMC8244865, “Recruitment of phospholipase Cγ1 to the non-structural membrane protein pK15 of Kaposi Sarcoma-associated herpesvirus promotes its Src-dependent phosphorylation” (PLoS Pathogens, 2021).
# B1: pK15 CT^WT: pK15 cytoplasmic tail fused to GST at its N-terminal end, phosphorylated in vitro by Src (protein)
# chain: SQLLNEVELQEVNRDPPNVFGYASILVSGAEESREPSPQPDQSGMSILRVDGGSAFRIDTAQAATQPTDDLYEEVLFPRN
# modifications: tyrosine-phosphorylated in vitro by Src; sites not stated for this construct; left off: GST, N-terminal, kept
# Columns and labels:
# [1] = biological target: T1, PLCγ1 cSH2 (Homo sapiens, UniProt P19174); assay: 1H,15N HSQC NMR titration, PLCγ1 cSH2; type: binding; details: 1H-15N HSQC titration, 600 MHz, 298 K, 100 μM protein, 100 mM MES, 150 mM NaCl, 3 mM TCEP, pH 6.5
# T1 construct: cSH2 (668–790): 166 ± 30 nM; thioredoxin (pETM22 fusion, purified on Ni column) (N, cleaved yes); made in house; host or cells: E. coli BL21(DE3)
# T1 sequence (P19174 668-790): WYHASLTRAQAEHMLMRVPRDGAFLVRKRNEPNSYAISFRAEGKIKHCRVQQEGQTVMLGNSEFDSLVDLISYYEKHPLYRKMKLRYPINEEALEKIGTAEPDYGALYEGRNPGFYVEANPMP
# Protocol: Fig 5 Affinity of pK15 peptide for PLCγ1 tSH2 or individual SH2 domains. (A) Binding curves of several PLCγ1 fragments in the presence of 200 nM 5,6-FAM-labelled pK15 (12mer). All measurements were performed in triplicate. […] (B and C) Overlay of ^1H,^15N HSQC NMR spectra of nSH2 (B) and cSH2 (C) alone (in yellow) and in the presence of 2 molar equivalents of the pK15 12mer peptide (blue), measured with a 600 MHz spectrometer at 298 K. The protein concentration was 100 μM and the buffer contained 100 mM MES, 150 mM NaCl, 3 mM TCEP, pH 6.5. (D and E) Excerpts from ^1H-^15N HSQC spectra of nSH2 (D) and cSH2 (E) upon addition of increasing concentrations of the pK15 12mer peptide.
# Next, we used Nuclear Magnetic Resonance (NMR) spectroscopy to further compare the interaction of the phosphorylated pK15 12mer to the isolated nSH2 and cSH2 domains (Fig 5B–5E). We recorded ^1H-^15N HSQC spectra of each of the two domains in the presence of increasing concentrations of the pK15 peptide. […] In light of this, it is conceivable that the preference of pK15 CT for cSH2 in vivo may be determined by kinetic rather than thermodynamic factors.
# NMR experiments were recorded at 298 K on a 600-MHz Bruker Avance III-HD spectrometer equipped with an inverse HCN cryogenic probehead (nitrogen-cooled) and running Topspin 3.2 software. […] NMR data were processed in Topspin and analysed in CcpNmr Analysis v2.4 [74].
# [2] = tested on: PLCγ1 tSH2 domain (Src-mediated phosphorylation, Y^783); assay: in vitro Src kinase assay, PLCγ1 tSH2 Y783 phosphorylation; type: biochemical; details: 0.6 μM tSH2, 0.085 μM Src, 1.25–5 μM peptide or fixed 5.0 μM, 37°C, 1 hour or 45 min (method), pY783 Western blot
# Protocol: Fig 7 The pK15 CT domain enhances Src-mediated phosphorylation of the PLCγ1 tSH2 domain. (A) The purified PLCγ1 tSH2 domain (0.6 μM) was incubated with limiting amounts (0.085 μM) of recombinant purified Src kinase expressed in insect cells in the presence of increasing concentrations (1.25–5 μM) of phosphorylated peptides representing the last 12 (pK15 12mer) or 35 (pK15 35mer) amino acids of the pK15 cytoplasmic domain for 1 hour at 37°C. The reaction was stopped using SDS sample buffer and analysed by SDS-PAGE and Western blot using an antibody to the PLCγ1 pY^783 residue (top panel) or to the His tag on the recombinant tSH2 domain (bottom panel). (B) Same as above, except that a fixed concentration (5.0 μM) of the 12mer peptide, the 35mer peptide or the pK15 truncation construct GST-pK15 CT^N2 [51] were used. The increased phosphorylation of the tSH2 domain in the presence of the 35mer peptide and pK15 CT^N2 can be seen. (C) Increasing concentrations of the phosphorylated pK15 12mer peptide were used to inhibit the increased src-mediated phosphorylation of tSH2 induced by 2.5 μM of the pK15 35mer peptide. Experimental conditions were as in panel A.
# To test the impact of a pK15 CT fragment (pK15 CT^N2) or phosphorylated pK15 peptides representing the last 12 (DDLp[…]) or 35 ([…]pYEEVLFRN) amino acids of pK15 CT on the Src-mediated phosphorylation of the PLCγ1 tSH2 domain, GST-pK15CT^N2 was first phosphorylated with Src in vitro as described in the preceding paragraph. Phosphorylated GST-pK15 CT^N2 or the phosphorylated pK15 peptides, suspended in 50 mM Tris pH7.4, 300 mM NaCl, 1 mM DTT, were then added to the purified recombinant tSH2 domain (0.6 μM) together with a limiting amount of recombinant Src kinase (0.085 μM) in kinase buffer (20 mM Tris pH7.4, 20 mM NaCl, 1 mM DTT, 10 mM MgCl2, 0.2 mM ATP, 0.5 mM Sodium orthovanadate, 0.5 mM β-glycerophosphate) and the reaction allowed to proceed for 45 min. The reaction mix was then analysed by Western blot using an antibody to the phosphorylated Y^783 in the linker region of the PLCγ1 tSH2 domain and an antibody to the 5x His tag. To test the inhibitory effect of the phosphorylated 12mer pK15 peptide on the enhancement of PLCγ1 tSH2 domain phosphorylation induced by the pK15 35mer peptide, increasing concentrations (1.25–5.0 μM) of the 12mer peptide were added to a reaction mix containing the purified recombinant tSH2 domain (2.5 μM), the phosphorylated pK15 35mer (2.5 μM), and recombinant Src kinase (0.085 μM). Following a 45 min incubation at 37°C, the reaction mixture was analysed by Western blot as above.
Molecule,NMR exchange regime [1],effect on Src-mediated phosphorylation of PLCγ1 tSH2 ([2]; listed as 12mer pK15 peptide),effect on Src-mediated phosphorylation of PLCγ1 tSH2 ([2]; listed as 12mer peptide),effect on Src-mediated phosphorylation of PLCγ1 tSH2 [2]
"DDLpYEEVLFPRN [pK15 12mer, phosphorylated peptide representing the last 12 amino acids of pK15 CT (DDLp…)]",fast exchange regime,moderate inhibition,cannot enhance the Src-mediated phosphorylation of PLCγ1,
B1,,,,enhanced the Src-mediated phosphorylation of the PLCγ1 tSH2 domain
